The results in this text go back to patent publication EP3057951B1, “METHYLENE LINKED QUINOLINYL MODULATORS OF ROR-GAMMA-T” (Janssen Pharmaceutica NV, priority 2013, dated 2015).

Like-named read-outs stand apart in the source and are kept apart here.

For test [1], the target named is T1, wild type human RORγt ligand binding domain (RORyt LBD) (Homo sapiens, UniProt P51449).
T1 construct: His-tag (N); TurboTEV protease cleavage site (ENLYFQG) (N); made in house; host or cells: E. coli (pHIS1, modified pET vector)
T1 sequence (P51449 258-518): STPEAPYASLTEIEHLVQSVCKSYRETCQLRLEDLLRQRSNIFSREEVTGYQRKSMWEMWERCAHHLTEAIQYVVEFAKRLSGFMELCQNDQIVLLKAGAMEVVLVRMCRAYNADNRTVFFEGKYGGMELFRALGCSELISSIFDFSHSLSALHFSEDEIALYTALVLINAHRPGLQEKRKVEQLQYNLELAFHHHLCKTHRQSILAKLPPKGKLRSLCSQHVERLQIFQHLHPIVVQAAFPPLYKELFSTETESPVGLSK
Nature of the test: RORγt ThermoFluor assay (thermal shift, binding affinity KD).

The target of test [2] is T2, wild type human RORγt LBD (Homo sapiens, UniProt P51449).
T2 construct: expressed in transfected cells; host or cells: HEK293T
T2 sequence (P51449 258-518): T1 sequence (P51449 258-518)
Nature of the test: RORγt (LBD) Reporter Assay (GAL4-luciferase, HEK293T cells). Format: cell-based. Conditions: for inhibition at 6 µM: HEK-293T, read-out: RORγt (LBD) Reporter Assay, % inhibition @ 6 µM, 6 µM compound concentration; for RORγt (LBD) Reporter Assay, % inhibition @ 6 µM: 6 µM compound concentration.

Setting [3] is: HEK293T cells, value after the comma with ∼, > or < could not be included in the average.

As to `COc1nc2ccc(C(O)(c3cccnc3)c3ccc(Cl)c(Cl)c3)cc2c(Cl)c1Cc1ccc(-n2cccn2)cc1` (single isomer, unassigned) [Example 161b, (3-(4-(1H-Pyrazol-1-yl)benzyl)-4-chloro-2-methoxyquinolin-6-yl)(3,4-dichlorophenyl)(pyridin-3-yl)methanol], the Kd in test [1] stood at 280 nM. Moreover, in test [2] (HEK293T cells), half-maximal inhibition (IC50) required 160 nM and the inhibition at 6 µM was found to be 108%.
`COc1nc2ccc(C(O)(c3cccnc3)c3ccc(Cl)c(Cl)c3)cc2c(Cl)c1Cc1ccc(-n2cccn2)cc1` (single isomer, unassigned) [Example 161c, (3-(4-(1H-Pyrazol-1-yl)benzyl)-4-chloro-2-methoxyquinolin-6-yl)(3,4-dichlorophenyl)(pyridin-3-yl)methanol]: the Kd in test [1] is 11 nM. Further, in test [2] (HEK293T cells), the “RORγt (LBD) Reporter Assay, % inhibition @ 6 µM” value came out at 102% and the midpoint of inhibition, the IC50, lay at 78 nM.
With `COc1nc2ccc(C(O)(c3cncn3C)C3CCOCC3)cc2c(C#N)c1Cc1ccc(-n2cccn2)cc1` (stereo not drawn) [Example 2b, 3-(4-(1H-Pyrazol-1-yl)benzyl)-6-(hydroxy(1-methyl-1H-imidazol-5-yl)(tetrahydro-2H-pyran-4-yl)methyl)-2-methoxyquinoline-4-carbonitrile], in test [1], the Kd is 110 nM. The same compound yielded an IC50 in test [2] (setting [3]) of 130 nM. Besides, the inhibition at 6 µM in test [2] came to 101%.
For `COc1nc2ccc(C(O)(c3cnnn3C)c3cnnn3C)cc2c(Cl)c1Cc1ccc(C(F)(F)F)cc1` [Example 12, (4-Chloro-2-methoxy-3-(4-(trifluoromethyl)benzyl)quinolin-6-yl)bis(1-methyl-1H-1,2,3-triazol-5-yl)methanol] the same measures were 0.7 nM, 3.1 nM and 99%.
`COc1nc2ccc(C(O)(c3ccc(C#N)cc3)c3cncn3C)cc2c(Cl)c1Cc1ccc(-n2cncn2)cc1` (stereo not drawn) [Example 14a, 4-((3-(4-(1H-1,2,4-Triazol-1-yl)benzyl)4-chloro-2-methoxyquinolin-6-yl)(hydroxy)(1-methyl-1H-imidazol-5-yl)methyl)benzonitrile]: in test [1], the Kd was determined as 17 nM. The compound also gave an IC50 in test [2] (setting [3]) of 42 nM. Besides, the inhibition at 6 µM in test [2] stood at 105%.
The like results for `COc1nc2ccc(C(O)(c3ccccc3)C3CCN(C(C)=O)CC3)cc2c(Cl)c1Cc1ccc(-n2ccnc2)cc1` (stereo not drawn) [Example 16a, 1-(4-((3-(4-(1H-Imidazol-1-yl)benzyl)4-chloro-2-metboxyquinolin-6-yl)(hydroxy)(phenyl)methyl)piperidin-1-yl)ethanone] were, in that order, 8.4 nM, 9.8 nM and 101%.
Consider `COc1nc2ccc(C(O)(c3ccccc3)C3CCN(C(C)=O)CC3)cc2c(Cl)c1Cc1ccc(-n2ccnc2)cc1` (stereo not drawn) [Example 16b], for which, in test [1], the Kd amounted to 33 nM. Besides, the “RORγt (LBD) Reporter Assay, % inhibition @ 6 µM” value in test [2] turned out to be 96%. In addition, in test [2] (setting [3]), it took 91 nM to reach half-maximal inhibition (IC50).
The like results for `COc1nc2ccc(C(O)(c3ccccc3)C3CCN(C(C)=O)CC3)cc2c(Cl)c1Cc1ccc(-n2ccnc2)cc1` (stereo not drawn) [Example 16c] were, in that order, 4.6 nM, 100% and 20 nM.
On to `COc1nc2ccc(C(O)(c3ccc(C)nc3C)c3cnnn3C)cc2c(Cl)c1Cc1ccc(-n2cccn2)cc1` (stereo not drawn) [Example 17a, (3-(4-(1H-Pyrazol-1-yl)benzyl)4-chloro-2-methoxyquinolin-6-yl)(2,6-dimethylpyridin-3-yl)(1-methyl-1H-1,2,3-triazol-5-yl)methanol], for which the Kd in test [1] was 0.91 nM. For the same compound, it took 10 nM to reach half-maximal inhibition in test [2] (setting [3]) (IC50). The inhibition at 6 µM in test [2] was found to be 99%.
For `COc1nc2ccc(C(O)(c3ccccc3)C3CCN(C(C)=O)CC3)cc2c(Cl)c1Cc1ccc(-n2cncn2)cc1` (stereo not drawn) [Example 18a, 1-(4-((3-(4-(1H-1,2,4-Triazol-1-yl)benzyl)4-chloro-2-methoxyquinolin-6-yl)(hydroxy)(phenyl)methyl)piperidin-1-yl)ethanone] the same measures were 14 nM, 46 nM and 99%.
As for `COc1nc2ccc(C(O)(c3ccc(C)nc3C)c3cnnn3C)cc2c(Cl)c1Cc1ccc(C)cc1` (stereo not drawn) [Example 20a, (4-Chloro-2-methoxy-3-(4-methylbenzyl)quinolin-6-yl)(2,6-dimethylpyridin-3-yl)(1-methyl-1H-1,2,3-triazol-5-yl)methanol], the Kd in test [1] amounted to 1.1 nM. For the same compound, the IC50 in test [2] (setting [3]) was 40 nM. For the same compound, the inhibition at 6 µM in test [2] was determined as 91%.
The like results for `COc1nc2ccc(C(O)(c3sc(C)nc3C)c3cnnn3C)cc2c(Cl)c1Cc1ccc(-n2cccn2)cc1` (stereo not drawn) [Example 21a, (3-(4-(1H-Pyrazol-1-yl)benzyl)4-chloro-2-methoxyquinolin-6-yl)(2,4-dimethylthiazol-5-yl)(1-methyl-1H-1,2,3-triazol-5-yl)methanol] were, in that order, 0.31 nM, 6 nM and 101%.
The like results for `CCc1nc2ccc(C(O)(c3ccc(C)nc3C)c3cnnn3C)cc2c(Cl)c1Cc1ccc(C(F)(F)F)cc1` (stereo not drawn) [Example 23a, (4-Chloro-2-ethyl-3-(4-(trifluoromethyl)benzyl)quinolin-6-yl)(2,6-dimethylpyridin-3-yl)(1-methyl-1H-1,2,3-triazol-5-yl)methanol] were, in that order, 0.14 nM, 18 nM and 99%.
The like results for `COc1nc2ccc(C(O)(c3ccc(C)nc3C)c3cnnn3C)cc2c(Cl)c1Cc1ccc(N(C)C)cc1` (stereo not drawn) [Example 24a, (4-Chloro-3-(4-(dimethylamino)benzyl)-2-methoxyquinolin-6-yl)(2,6-dimethylpyridin-3-yl)(1-methyl-1H-1,2,3-triazol-5-yl)methanol] were, in that order, 1.5 nM, 4.6 nM and 100%.
Take `Cc1nc2ccc(C(O)(c3ccc(C(F)(F)F)nc3)c3cncn3C)cc2c(Cl)c1Cc1ccc(C(F)(F)F)cc1` (stereo not drawn) [Example 26a, (4-Chloro-2-methyl-3-(4-(trifluoromethyl)benzyl)quinolin-6-yl)(1-methyl-1H-imidazol-5-yl)(6-(trifluoromethyl)pyridin-3-yl)methanol]: in test [1], the dissociation constant (Kd) is 3.1 nM. The same compound showed an IC50 in test [2] (setting [3]) of 33 nM. Moreover, the inhibition at 6 µM in test [2] was determined as 101%.
For `CC(=O)N1CCC(C(O)(c2ccccc2)c2ccc3nc(C)c(Cc4ccc(C(F)(F)F)cc4)c(Cl)c3c2)CC1` (stereo not drawn) [Example 27a, 1-(4-((4-Chloro-2-methyl-3-(4-(trifluoromethyl)benzyl)quinolin-6-yl)(hydroxy)(phenyl)methyl)piperidin-1-yl)ethanone] the same measures were 1.4 nM, 4.4 nM and 101%.
For `Cc1ccc(C(O)(c2ccc3nc(C)c(Cc4ccc(C(F)(F)F)cc4)c(Cl)c3c2)c2cnnn2C)c(C)n1` (stereo not drawn) [Example 28a, (4-Chloro-2-methyl-3-(4-(trifluoromethyl)benzyl)quinolin-6-yl)(2,6-dimethylpyridin-3-yl)(1-methyl-1H-1,2,3-triazol-5-yl)methanol] the same measures were 0.25 nM, 11 nM and 99%.
For `COc1nc2ccc(C(O)(c3ccc(C#N)cc3)c3cncn3C)cc2c(Cl)c1Cc1ccc(C(F)(F)F)nc1` (stereo not drawn) [Example 38a, 4-((4-Chloro-2-methoxy-3-((6-(trifluoromethyl)pyridin-3-yl)methyl)quinolin-6-yl)(hydroxy)(1-methyl-1H-imidazol-5-yl)methyl)benzonitrile] the same measures were 55 nM, 1.9 nM and 100%.
As for `COc1nc2ccc(C(O)(c3ccc(C)nc3C)c3cnnn3C)cc2c(C#N)c1Cc1ccc(C(F)(F)F)nc1` (stereo not drawn) [Example 41a, 6-((2,6-Dimethylpyridin-3-yl)(hydroxy)(1-methyl-1H-1,2,3-triazol-5-yl)methyl)-2-methoxy-3-((6-(trifluoromethyl)pyridin-3-yl)methyl)quinoline-4-carbonitrile], the Kd in test [1] stood at 2.8 nM. In test [2] (setting [3]), this compound registered an IC50 of 24 nM. Also, the inhibition at 6 µM in test [2] amounted to 99%.
For `COc1nc2ccc(C(O)(c3cnnn3C)c3cnc(C)n3C)cc2c(Cl)c1Cc1ccc(C(F)(F)F)nc1` (stereo not drawn) [Example 43a, (4-Chloro-2-methoxy-3-((6-(trifluoromethyl)pyridin-3-yl)methyl)quinolin-6-yl)(1,2-dimethyl-1H-imidazol-5-yl)(1-methyl-1H-1,2,3-triazol-5-yl)methanol] the same measures were 1 nM, 7.9 nM and 98%.
In the case of `COc1nc2ccc(C(O)(c3ccccc3)C3CCN(C(C)=O)CC3)cc2c(Cl)c1Cc1ccc(F)cc1` (stereo not drawn) [Example 50, 1-(4-((4-Chloro-3-(4-fluorobenzyl)-2-methoxyquinolin-6-yl)(hydroxy)(phenyl)methyl)piperidin-1-yl)ethanone], in test [1], the Kd was 10 nM. Moreover, the IC50 in test [2] (setting [3]) was ~4000 nM. The inhibition at 6 µM in test [2] is 82%.
The like results for `COCCOc1nc2ccc(C(O)(c3ccc(Cl)cc3)c3cncn3C)cc2c(Cl)c1Cc1ccc(-n2cccn2)cc1` (stereo not drawn) [Example 56] were, in that order, 200 nM, 450 nM and 101%.

For orientation: Kd means a measure of binding affinity in units of concentration. The IC50 is the concentration needed to halve the response being measured.
